In patent publication US10681909B2, “Herbicidal triazoles” (FMC Corporation, priority 2014, dated 2020):

What was measured:
ragweed = experiment: Test A postemergence; format: in vivo, Ambrosia elatior; conditions: 0 to 100 scale (0 no effect, 100 complete control), approx. 10 d
Outline: (§1)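 Weed and crop species in loam–sand blend sprayed preemergence on soil or postemergence at 2–10 cm, one- to two-leaf stage, with chemicals in surfactant-containing solvent. Injury rated visually after ~10 d in greenhouse versus untreated controls on a 0–100 scale (100 = complete control).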

ryegrass, Italian = experiment: Test A postemergence; format: in vivo, Lolium multiflorum; conditions: 0 to 100 scale (0 no effect, 100 complete control), approx. 10 d
Outline: as §1

blackgrass [1] = experiment: Test A postemergence; format: in vivo, Alopecurus myosuroides; conditions: 0 to 100 scale (0 no effect, 100 complete control), approx. 10 d
Outline: as §1

lambsquarters = experiment: Test D preemergence; format: in vivo, Chenopodium album; conditions: for Plant response rating (0 to 100), Lambsquarters: 16 g ai/ha, 0 is no effect, 100 is complete control; for Plant response rating: Lambsquarters: scale 0 to 100
Excerpt: (§2) Seeds of plant species selected from bluegrass (annual bluegrass, Poa annua), blackgrass (Alopecurus myosuroides), canarygrass (Phalaris minor), chickweed (common chickweed, Stellaria media), galium (catchweed bedstraw, Galium aparine), bromegrass, down (downy bromegrass, Bromus tectorum), Russian thistle (Salsola kali), field poppy (Papaver rhoeas), field violet (Viola arvensis), foxtail, green (green foxtail, Setaria viridis), deadnettle (henbit deadnettle, Lamium amplexicaule), ryegrass, Ital. (Italian ryegrass, Lolium multiflorum), kochia (Kochia scoparia), lambsquarters (Chenopodium album), oilseed rape (Brassica napus), pigweed (Amaranthus retroflexus), chamomile (scentless chamomile, Matricaria inodora), speedwell (bird's-eye speedwell, Veronica persica), barley, spring (spring barley, Hordeum vulgare), wheat, spring (spring wheat, Triticum aestivum), buckwheat, wild (wild buckwheat, Polygonum convolvulus), wild mustard (Sinapis arvensis), oat, wild (wild oat, Avena fatua), radish, wild (wild radish, Raphanus raphanistrum), […]), barley, winter (winter barley, Hordeum vulgare), and wheat, winter (winter wheat, Triticum aestivum) were planted into a silt loam soil and treated preemergence with test chemicals formulated in a non-phytotoxic solvent mixture which included a surfactant. At the same time, these species were planted in pots containing Sunshine Redi-Earth® planting medium comprising spaghnum peat moss, vermiculite, starter nutrients and dolomitic limestone and treated with postemergence applications of the test chemicals formulated in the same manner. Plants ranged in height from 2 to 18 cm (1- to 4-leaf stage). Treated plants and controls were maintained in a controlled growth environment for 14 to 21 d after which time all species were compared to controls and visually evaluated. […] A dash (-) response means no test result.

speedwell = experiment: Test D preemergence; format: in vivo, Veronica persica; conditions: for Plant response rating (0 to 100), Speedwell: 16 g ai/ha, 0 is no effect, 100 is complete control; for Plant response rating: Speedwell: scale 0 to 100
Excerpt: as §2

radish, wild = experiment: Test D preemergence; format: in vivo, Raphanus raphanistrum; conditions: for Plant response rating (0 to 100), Radish, Wild: 16 g ai/ha, 0 is no effect, 100 is complete control; for Plant response rating: Radish, Wild: scale 0 to 100
Excerpt: as §2

blackgrass [2] = experiment: Test D postemergence; format: in vivo, Alopecurus myosuroides; conditions: scale 0 to 100
Excerpt: as §2

oilseed rape = experiment: Test D postemergence; format: in vivo, Brassica napus; conditions: scale 0 to 100
Excerpt: as §2

pigweed = experiment: Test D postemergence; format: in vivo, Amaranthus retroflexus; conditions: scale 0 to 100
Excerpt: as §2

chamomile = experiment: Test D postemergence; format: in vivo, Matricaria inodora; conditions: scale 0 to 100
Excerpt: as §2

Row | Compound | Plant response rating, Ragweed (ragweed; 125 g ai/ha) | Plant response rating, Ragweed (ragweed; 500 g ai/ha) | Plant response rating, Ryegrass, Italian (ryegrass, Italian; 125 g ai/ha) | Plant response rating, Ryegrass, Italian (ryegrass, Italian; 500 g ai/ha) | Plant response rating, Blackgrass (blackgrass [1]; 125 g ai/ha) | Plant response rating, Blackgrass (blackgrass [1]; 500 g ai/ha) | Plant response rating (0 to 100), Lambsquarters (lambsquarters) | Plant response rating: Lambsquarters (lambsquarters; 62 g ai/ha) | Plant response rating: Lambsquarters (lambsquarters; 125 g ai/ha) | Plant response rating (0 to 100), Speedwell (speedwell) | Plant response rating: Speedwell (speedwell; 62 g ai/ha) | Plant response rating: Speedwell (speedwell; 125 g ai/ha) | Plant response rating: Radish, Wild (radish, wild; 62 g ai/ha) | Plant response rating: Radish, Wild (radish, wild; 125 g ai/ha) | Plant response rating: Blackgrass (blackgrass [2]; 16 g ai/ha) | Plant response rating: Blackgrass (blackgrass [2]; 31 g ai/ha) | Plant response rating: Blackgrass (blackgrass [2]; 62 g ai/ha) | Plant response rating: Blackgrass (blackgrass [2]; 125 g ai/ha) | Plant response rating: Oilseed Rape (oilseed rape; 16 g ai/ha) | Plant response rating: Oilseed Rape (oilseed rape; 31 g ai/ha) | other results
1 | FC(F)(F)COc1nc(-c2ccccc2)nn1Cc1ccnc(C(F)(F)F)c1 [Compound 24] | 50 | 70 | 30 | 60 | 40 | 60 | 65 | 80 | 85 | 80 | 100 | 100 | 75 | 100 | 25 | 35 | 45 | 65 | 65 | 75 | Plant response rating (0 to 100), Radish, Wild (radish, wild): 45; Plant response rating: Oilseed Rape (oilseed rape; 62 g ai/ha): 80; Plant response rating: Oilseed Rape (oilseed rape; 125 g ai/ha): 85; Plant response rating: Pigweed (pigweed; 16 g ai/ha): 95; Plant response rating: Pigweed (pigweed; 31 g ai/ha): 100; Plant response rating: Pigweed (pigweed; 62 g ai/ha): 100; Plant response rating: Pigweed (pigweed; 125 g ai/ha): 100; Plant response rating: Chamomile (chamomile; 16 g ai/ha): 30; Plant response rating: Chamomile (chamomile; 31 g ai/ha): 20; Plant response rating: Chamomile (chamomile; 62 g ai/ha): 20; Plant response rating: Chamomile (chamomile; 125 g ai/ha): 30
2 | CCOc1nc(-c2ccccc2)nn1Cc1ccnc(C(F)(F)F)c1 [Compound 27] | 50 | 70 | 50 | 90 | 70 | 80 | 85 | 95 | 95 | 95 | 100 | 100 | 85 | 100 | 45 | 50 | 55 | 65 | 80 | 85 | Plant response rating (0 to 100), Radish, Wild (radish, wild): 75; Plant response rating: Oilseed Rape (oilseed rape; 62 g ai/ha): 90; Plant response rating: Oilseed Rape (oilseed rape; 125 g ai/ha): 100; Plant response rating: Pigweed (pigweed; 16 g ai/ha): 100; Plant response rating: Pigweed (pigweed; 31 g ai/ha): 100; Plant response rating: Pigweed (pigweed; 62 g ai/ha): 100; Plant response rating: Pigweed (pigweed; 125 g ai/ha): 100; Plant response rating: Chamomile (chamomile; 16 g ai/ha): 15; Plant response rating: Chamomile (chamomile; 31 g ai/ha): 15; Plant response rating: Chamomile (chamomile; 62 g ai/ha): 20; Plant response rating: Chamomile (chamomile; 125 g ai/ha): 35
3 | COc1nc(-c2ccc(Cl)cc2)nn1Cc1ccnc(C(F)(F)F)c1 [Compound 28] | 20 | 30 | 20 | 50 | 10 | 40 | 75 | 85 | 95 | 75 | 100 | 100 | 60 | 80 | 25 | 35 | 55 | 60 | 65 | 75 | Plant response rating: Oilseed Rape (oilseed rape; 62 g ai/ha): 75; Plant response rating: Oilseed Rape (oilseed rape; 125 g ai/ha): 85; Plant response rating: Pigweed (pigweed; 16 g ai/ha): 100; Plant response rating: Pigweed (pigweed; 31 g ai/ha): 100; Plant response rating: Pigweed (pigweed; 62 g ai/ha): 100; Plant response rating: Pigweed (pigweed; 125 g ai/ha): 100; Plant response rating: Chamomile (chamomile; 16 g ai/ha): 10; Plant response rating: Chamomile (chamomile; 31 g ai/ha): 15; Plant response rating: Chamomile (chamomile; 62 g ai/ha): 15; Plant response rating: Chamomile (chamomile; 125 g ai/ha): 25
4 | Fc1ccc(-c2nc(OCC(F)(F)F)n(Cc3ccnc(C(F)(F)F)c3)n2)cc1 [Compound 30] | 40 | 70 | 50 | 80 | 30 | 80 | 85 | 95 | 95 | 100 | 100 | 100 | 95 | 100 | 45 | 60 | 65 | 75 | 90 | 75 | Plant response rating (0 to 100), Radish, Wild (radish, wild): 65; Plant response rating: Oilseed Rape (oilseed rape; 62 g ai/ha): 100; Plant response rating: Oilseed Rape (oilseed rape; 125 g ai/ha): 100; Plant response rating: Pigweed (pigweed; 16 g ai/ha): 100; Plant response rating: Pigweed (pigweed; 31 g ai/ha): 100; Plant response rating: Pigweed (pigweed; 62 g ai/ha): 100; Plant response rating: Pigweed (pigweed; 125 g ai/ha): 100; Plant response rating: Chamomile (chamomile; 16 g ai/ha): 20; Plant response rating: Chamomile (chamomile; 31 g ai/ha): 30; Plant response rating: Chamomile (chamomile; 62 g ai/ha): 40; Plant response rating: Chamomile (chamomile; 125 g ai/ha): 70
5 | FC(F)(F)COc1nc(-c2ccc(Cl)cc2)nn1Cc1ccnc(C(F)(F)F)c1 [Compound 31] | 70 | 80 | 50 | 80 | 50 | 80 | 75 | 85 | 90 | 100 | 100 | 100 | 100 | 100 | 45 | 65 | 70 | 80 | 80 | 85 | Plant response rating: Oilseed Rape (oilseed rape; 62 g ai/ha): 90; Plant response rating: Oilseed Rape (oilseed rape; 125 g ai/ha): 100; Plant response rating: Pigweed (pigweed; 16 g ai/ha): 100; Plant response rating: Pigweed (pigweed; 31 g ai/ha): 100; Plant response rating: Pigweed (pigweed; 62 g ai/ha): 100; Plant response rating: Pigweed (pigweed; 125 g ai/ha): 100; Plant response rating: Chamomile (chamomile; 16 g ai/ha): 20; Plant response rating: Chamomile (chamomile; 31 g ai/ha): 35; Plant response rating: Chamomile (chamomile; 62 g ai/ha): 65; Plant response rating: Chamomile (chamomile; 125 g ai/ha): 80
